Experimental data reported in patent publication US20230019280A1, “SUBSTITUTED ISOINDOLONYL 2,2'-BIP[…], ANALOGUES THEREOF, AND METHODS USING SAME” (priority 2019, published 2023).

System: HBsAg
Assay: HBsAg assay (inhibition of HBsAg in HepG2.2.15 cells)
Format: cell-based, hepatitis B virus
Conditions: Hepatitis B virus, HepG2.2.15, 144 h, read-out: sAg EC50, HepG2.2.15 cells; supernatant HBsAg by CLIA at day 6 after exposure of compounds
Method: Inhibition of HBsAg was determined in HepG2.2.15 cells. Cells were maintained in culture medium containing 10% fetal calf serum, […], Glutamine, penicillin/streptomycin. Cells were seeded in 96-well collagen-coated plate at a density of 30,000 cells/well. Serially diluted compounds were added to cells next day at the final DMSO concentration of 0.5%. Cells were incubated with compounds for 2-3 days, after which medium was removed. Fresh medium containing compounds was added to cells for additional 3-4 days. At day 6 after exposure of compounds, supernatant was collected, the HBsAg immunoassay (microplate-based chemiluminescence immunoassay kits, CLIA, Autobio Diagnosics Co., Zhengzhou, China, Catalog #CL0310-2) was used to determine the level of HBsAg according to manufactory instruction. Dose-response curves were generated and the EC50 value (effective concentrations that achieved 50% inhibitory effect) were determined using XLfit software. In addition, cells were seeded at a density of 5,000 cells/well for determination of cell viability in the presence and absence of compounds by using CellTiter-Glo reagent (Promega).

Structure (SMILES) | EC50 [nM]
CCC1c2cc(OC)c(OC)cc2C(=O)N1c1cncc(-c2ncccn2)n1 (stereo not shown) [Example 35, 3-Ethyl-5,6-dimethoxy-2-(6-(pyrimidin-2-yl)pyrazin-2-yl)isoindolin-1-one] | 1000
COc1cc2c(cc1OC)C(C(C)(C)C)N(c1ccnc(-c3ncccn3)n1)C2=O (stereo not shown) [Example 45, 2-([2,2′-Bipyrimidin]-4-yl)-3-(tert-butyl)-5,6-dimethoxyisoindolin-1-one] | 3
COc1cc2c(cc1OC)C(c1ccc3c(c1)OCCO3)N(c1ccnc(-c3ncccn3)n1)C2=O (stereo not shown) [Example 26, 2-([2,2′-Bipyrimidin]-4-yl)-3-(2,3-dihydrobenzo[b][1,4]dioxin-6-yl)-5,6-dimethoxyisoindolin-1-one] | 18
COc1cc2c(cc1OC)C(=O)N(c1ccnc(-c3ncccn3)n1)CC2 [Example 63, 2-([2,2′-Bipyrimidin]-4-yl)-6,7-dimethoxy-3,4-dihydroisoquinolin-1(2H)-one] | 520
CCC1c2cc(OC)c(OC)cc2C(=O)N1c1cc(-c2ncccn2)ncn1 (stereo not shown) [Example 37, 2-([2,4′-Bipyrimidin]-6′-yl)-3-ethyl-5,6-dimethoxyisoindolin-1-one] | 290
O=C1c2c(F)cc(F)cc2CN1c1ccnc(-c2ncccn2)n1 [Example 60, 2-([2,2′-Bipyrimidin]-4-yl)-5,7-difluoroisoindolin-1-one] | 850
CCOc1cc2c(cc1F)C(CC)N(c1nc(-c3ncccn3)ncc1F)C2=O (single isomer, unassigned) [Example 56, 6-Ethoxy-3-ethyl-5-fluoro-2-(5-fluoro-[2,2′-bipyrimidin]-4-yl)isoindolin-1-one] | 70
COc1cc2c(cc1OC)C(CC(C)C)N(c1ccnc(-c3ncccn3)n1)C2=O (stereo not shown) [Example 39, 2-([2,2′-Bipyrimidin]-4-yl)-3-isobutyl-5,6-dimethoxyisoindolin-1-one] | 2
COc1cc2c(cc1OC)C(C1CCC1)N(c1ccnc(-c3ncccn3)n1)C2=O (stereo not shown) [Example 28, 2-([2,2′-Bipyrimidin]-4-yl)-3-cyclobutyl-5,6-dimethoxyisoindolin-1-one] | 2
CCC1c2cc(OC)c(OC)cc2C(=O)N1c1ccnc(-c2ncccn2)n1 (stereo not shown) [Example 1, 2-([2,2′-Bipyrimidin]-4-yl)-3-ethyl-5,6-dimethoxyisoindolin-1-one] | 27
COc1cc2c(cc1OC)C1(CC1)N(c1ccnc(-c3ncccn3)n1)C2=O [Example 46, 2′-([2,2′-Bipyrimidin]-4-yl)-5′,6′-dimethoxyspiro[cyclopropane-1,1′-isoindolin]-3′-one] | 240
CCCC1c2cc(F)c(OC)cc2C(=O)N1c1nc(-c2ncccn2)ncc1F (single isomer, unassigned) [Example 58, 5-Fluoro-2-(5-fluoro-[2,2′-bipyrimidin]-4-yl)-6-methoxy-3-propylisoindolin-1-one] | 20
COc1cc2c(cc1OC)C(c1ccccc1)N(c1ccnc(-c3ncccn3)n1)C2=O (stereo not shown) [Example 42, 2-([2,2′-Bipyrimidin]-4-yl)-5,6-dimethoxy-3-phenylisoindolin-1-one] | 1
CCC1c2cc(F)c(F)cc2C(=O)N1c1cnc(-c2ncccn2)nc1 (single isomer, unassigned) [Example 59, 2-([2,2′-Bipyrimidin]-5-yl)-3-ethyl-5,6-difluoroisoindolin-1-one] | 10000
CCC1c2cc(F)c(OC)cc2C(=O)N1c1nc(-c2ncccn2)ncc1OC (stereo not shown) [Example 25, 3-Ethyl-5-fluoro-6-methoxy-2-(5-methoxy-[2,2′-bipyrimidin]-4-yl)isoindolin-1-one] | 10000
CCC1c2cc(OC)c(OC)cc2C(=O)N1c1nc(-c2ncccn2)nc(C)c1C (stereo not shown) [Example 24, 2-(5,6-Dimethyl-[2,2′-bipyrimidin]-4-yl)-3-ethyl-5,6-dimethoxyisoindolin-1-one] | 10000
CCC1c2cc(OC)c(OC)cc2C(=O)N1c1cccc(-c2ncccn2)n1 (stereo not shown) [Example 31, 3-Ethyl-5,6-dimethoxy-2-(6-(pyrimidin-2-yl)pyridin-2-yl)isoindolin-1-one] | 7000
COc1cc2c(cc1OC)CN(c1ccnc(-c3ncccn3)n1)C(=O)C2 [Example 65, 2-([2,2′-Bipyrimidin]-4-yl)-6,7-dimethoxy-1,4-dihydroisoquinolin-3(2H)-one] | 5000

Same assay, conditions: read-out: sAg EC50; HepG2.2.15 cells; supernatant HBsAg by CLIA at day 6 after exposure of compounds

Structure (SMILES) | EC50 [nM]
CCC1c2cc(OC)c(Cl)cc2C(=O)N1c1ccnc(-c2ncccn2)n1 (single isomer, unassigned) [Example 7, 2-([2,2′-Bipyrimidin]-4-yl)-6-chloro-3-ethyl-5-methoxyisoindolin-1-one] | 8000
COc1cc2c(cc1OC)C(c1ccccc1)N(c1ccnc(-c3ncccn3)n1)C2=O (single isomer, unassigned) [Example 44, 2-([2,2′-Bipyrimidin]-4-yl)-5,6-dimethoxy-3-phenylisoindolin-1-one] | 160
COc1cc2c(cc1OC)C(Cc1ccccc1)N(c1ccnc(-c3ncccn3)n1)C2=O (single isomer, unassigned) [Example 15, 2-([2,2′-Bipyrimidin]-4-yl)-3-benzyl-5,6-dimethoxyisoindolin-1-one] | 40000
CCC1c2cc(Cl)cc(F)c2C(=O)N1c1ccnc(-c2ncccn2)n1 (single isomer, unassigned) [Example 21, 2-([2,2′-Bipyrimidin]-4-yl)-5-chloro-3-ethyl-7-fluoroisoindolin-1-one] | 25000
COc1cc2c(cc1OC)C(c1ccccc1)N(c1nc(-c3ncccn3)ncc1F)C2=O (single isomer, unassigned) [Example 71, 2-(5-Fluoro-[2,2′-bipyrimidin]-4-yl)-5,6-dimethoxy-3-phenylisoindolin-1-one] | 1000
CCC1c2cc(F)c(OC)cc2C(=O)N1c1ccnc(-c2ncccn2)n1 (single isomer, unassigned) [Example 50, 3-Ethyl-5-fluoro-6-methoxy-2-(2-pyrimidin-2-ylpyrimidin-4-yl)isoindolin-1-one] | 480
COc1cc2c(cc1OC)C(c1ccccc1)N(c1nc(-c3ncccn3)ncc1F)C2=O (single isomer, unassigned) [Example 70, 2-(5-Fluoro-[2,2′-bipyrimidin]-4-yl)-5,6-dimethoxy-3-phenylisoindolin-1-one] | 1
CCC1c2cc(OC)c(OC)cc2C(=O)N1c1nc(-c2ncccn2)ncc1F (single isomer, unassigned) [Example 67, 3-Ethyl-2-(5-fluoro-[2,2′-bipyrimidin]-4-yl)-5,6-dimethoxyisoindolin-1-one] | 10000
CCC1c2c(F)cc(Cl)cc2C(=O)N1c1ccnc(-c2ncccn2)n1 (single isomer, unassigned) [Example 9, 2-([2,2′-Bipyrimidin]-4-yl)-6-chloro-3-ethyl-4-fluoroisoindolin-1-one] | 5000
CCC1c2cc(OC)c(OC)cc2C(=O)N1c1ccnc(-c2ncccn2)c1 (single isomer, unassigned) [Example 33, 3-Ethyl-5,6-dimethoxy-2-(2-(pyrimidin-2-yl)pyridin-4-yl)isoindolin-1-one] | 7
CCC1c2cc(OC)c(OC)cc2C(=O)N1c1ccnc(-c2ncccn2)c1 (single isomer, unassigned) [Example 34, 3-Ethyl-5,6-dimethoxy-2-(2-(pyrimidin-2-yl)pyridin-4-yl)isoindolin-1-one] | 62
CCC1c2c(F)cc(Cl)cc2C(=O)N1c1ccnc(-c2ncccn2)n1 (single isomer, unassigned) [Example 8, 2-([2,2′-Bipyrimidin]-4-yl)-6-chloro-3-ethyl-4-fluoroisoindolin-1-one] | 10
CCC1c2cc(F)c(OC)cc2C(=O)N1c1nc(-c2ncccn2)ncc1F (single isomer, unassigned) [Example 55, 3-Ethyl-5-fluoro-2-(5-fluoro-2-pyrimidin-2-yl-pyrimidin-4-yl)-6-methoxy-isoindolin-1-one] | 50
CCC1c2cc(F)c(OC)cc2C(=O)N1c1nc(-c2ncccn2)ncc1F (single isomer, unassigned) [Example 74, 3-Ethyl-5-fluoro-2-(5-fluoro-[2,2′-bipyrimidin]-4-yl)-6-methoxyisoindolin-1-one] | 300
CCC1c2cc(OC)c(C)cc2C(=O)N1c1ccnc(-c2ncccn2)n1 (single isomer, unassigned) [Example 5, 2-([2,2′-Bipyrimidin]-4-yl)-3-ethyl-5-methoxy-6-methylisoindolin-1-one] | 1000
CCC1c2cc(OC)c(OC)cc2C(=O)N1c1ccnc(-c2ncc(F)cn2)n1 (single isomer, unassigned) [Example 73, 3-Ethyl-2-(5′-fluoro-[2,2′-bipyrimidin]-4-yl)-5,6-dimethoxyisoindolin-1-one] | 1000
COc1cccc(C2c3cc(OC)c(OC)cc3C(=O)N2c2ccnc(-c3ncccn3)n2)c1 (single isomer, unassigned) [Example 12, 2-([2,2′-Bipyrimidin]-4-yl)-5,6-dimethoxy-3-(3-methoxyphenyl)isoindolin-1-one] | 5
COc1cc2c(cc1OC)C(Cc1ccccc1)N(c1ccnc(-c3ncccn3)n1)C2=O (single isomer, unassigned) [Example 14, 2-([2,2′-Bipyrimidin]-4-yl)-3-benzyl-5,6-dimethoxyisoindolin-1-one] | 100
COc1cc2c(cc1OC)C(c1ccccn1)N(c1ccnc(-c3ncccn3)n1)C2=O (single isomer, unassigned) [Example 23, 2-([2,2′-Bipyrimidin]-4-yl)-5,6-dimethoxy-3-(pyridin-2-yl)isoindolin-1-one] | 500
